Laboratory results as given in BindingDB's records for doi:10.7270/Q2CN728N (Nmmlsc, 2008).

The compounds below were run against T1, Bcl-2-related protein A1 (Homo sapiens, UniProt Q16548) (assay: Bfl-1/Bim complex disruptors – biochemical, multiplexed, bead-based flow cytometry, dose response (AID 1320)). Conditions: inactive by the depositor's call; pH 7.4; 4 °C.
T1 sequence (Q16548 whole entry): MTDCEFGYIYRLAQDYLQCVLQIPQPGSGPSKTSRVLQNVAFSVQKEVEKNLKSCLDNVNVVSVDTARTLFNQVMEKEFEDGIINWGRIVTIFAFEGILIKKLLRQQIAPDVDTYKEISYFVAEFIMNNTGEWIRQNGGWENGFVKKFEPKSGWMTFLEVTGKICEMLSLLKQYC
Work on `COc1cccc2c1C(=O)C=C(C)C2=O` [MLS000702735] yielded an EC50 of 28.3 µM.
`COc1ccccc1-n1c(-c2cc(-c3ccc(F)cc3)[nH]n2)n[nH]c1=S` [SMR000293072] showed an EC50 of 5.04 µM.
For `Nc1c(C(=O)NCc2ccco2)sc2nc3c(cc12)C(=O)CCC3` [SMR000072940], the EC50 was 57.3 µM.
Compound `CN(C)c1ccc(Nc2nc(-c3cccnc3)cs2)cc1` [SMR000104797] has an EC50 of 0.85 µM.
`Cc1ccc(-c2ccc(/C=C/C(=O)c3ccccc3)o2)cc1` showed an EC50 of 7.03 µM.
With `O=C(Cn1c2ccccc2c(=O)c2ccccc21)N/N=C/c1ccc(N2CCCC2)c([N+](=O)[O-])c1` [N'-[(1E)-(3-nitro-4-pyrrolidin-1-ylphenyl)methylene]-2-(9-oxoacridin-10(9H)-yl)acetohydrazide] the EC50 was 41.1 µM.
`COc1cc(C2Nc3cccc4cccc(c34)N2)ccc1OC(C)=O` [Acetic acid 4-(2,3-dihydro-1H-perimidin-2-yl)-2-methoxy-phenyl ester] showed an EC50 of 11.1 µM.
`CCN(CC)c1ccc(-c2nn3c(-c4n[nH]c5c4CCC5)nnc3s2)cc1` was tested, and the EC50 was 28.6 µM.
For `CC1N(C)c2cccc3cccc(c23)N1C` [1,2,3-trimethyl-2,3-dihydro-1H-perimidine], the EC50 was 2.46 µM.
In the case of `CNc1ccc(Br)cc(C(=O)/C=C/c2ccc(OC)cc2)c1=O` [SMR000229850], the EC50 is reported as 15 µM.

Same assay, conditions: pH 7.4; 4 °C
Work on `COc1cc(C2Nc3cccc4cccc(c34)N2)cc(OC)c1O` [4-(2,3-dihydro-1H-perimidin-2-yl)-2,6-dimethoxyphenol] yielded an EC50 of 1.73 µM.
`Cc1ccc(-c2cc(-c3ccc(C)o3)nc(N)c2C#N)cc1` [2-amino-6-(5-methylfuran-2-yl)-4-(4-methylphenyl)pyridine-3-carbonitrile] was tested, and the EC50 was 2.25 µM.
`CCN(CC)c1ccc(Nc2nc(N3CCOCC3)c3ccccc3n2)cc1` [4-N,4-N-diethyl-1-N-(4-morpholin-4-ylquinazolin-2-yl)benzene-1,4-diamine] was tested, and the EC50 was 9 µM.
For `COc1ccc2c3c(cccc13)N(C)N=C2C` [MLS000554700], the EC50 was 0.61 µM.
Work on `Fc1ccc(C=C2CCCC3C2=NC(=S)NC3c2ccc(F)cc2)cc1` (stereo not drawn) [(8E)-4-(4-fluorophenyl)-8-[(4-fluorophenyl)methylidene]-1,3,4,5,6,7-hexahydroquinazoline-2-thione] yielded an EC50 of 6.65 µM.
With `O=C1/C(=C\c2ccc(-c3ccccc3Cl)o2)SC(=S)N1CC1CCCO1` (stereo not drawn) [(5E)-5-[[5-(2-chlorophenyl)furan-2-yl]methylidene]-3-(oxolan-2-ylmethyl)-2-sulfanylidene-1,3-thiazolidin-4-one] the EC50 was 2.6 µM.
Work on `Cc1ccc(C)c(/C=C/C(=O)c2ccccc(=O)c2O)c1` yielded an EC50 of 8.74 µM.
`CC(=O)OCCNc1cc(Sc2nc3ccccc3[nH]2)c2nonc2c1[N+](=O)[O-]` [2-{[7-(1H-benzimidazol-2-ylthio)-4-nitro-2,1,3-benzoxadiazol-5-yl]amino}ethyl acetate] gave an EC50 of 5.6 µM.
`COc1ccc(-n2cc(-c3ccc(OC)c(OC)c3)[nH]c2=S)cc1` was tested, and the EC50 was 1.58 µM.
With `CCOC(=O)CSC1=NC(=O)/C(=C\c2ccc(OC(C)=O)cc2)S1` [SMR000180755] the EC50 was 3.33 µM.
In the case of `CC1CC(=Cc2cccc(F)c2)C2=NC(=S)NC(c3cccc(F)c3)C2C1` (stereo not drawn) [SMR000306148], the EC50 is reported as 15.2 µM.
`COc1cc(CNc2ccc3[nH]c(=O)[nH]c3c2)cc(Br)c1OCC(=O)NC(C)(C)C` [2-[2-bromo-6-methoxy-4-[[(2-oxo-1,3-dihydrobenzimidazol-5-yl)amino]methyl]phenoxy]-N-tert-butylacetamide] was tested, and the EC50 was 0.87 µM.
For `CCN1C(=O)/C(=C/C=C2\C=CN(CC)c3ccccc32)SC1=S`, the EC50 was 3.6 µM.
